According to US9023789B2, “Amylin analogs and pharmaceutical compositions thereof” (Novo Nordisk A/S, priority 2012, dated 2015):
≈ marks a conversion by molar mass, not a printed value. Like-named read-outs stand apart in the source and are kept apart here. Numbered stars: 1 amine (or outer) side, 2 acyl side, 3 side chain; on linkers, the order of the positions; unused ones are H or OH. Bridge positions count the residues as written; N and C are the ends. Side chains are listed from the residue outwards. Peptide text beside a SMILES is read from it. * marks the point of attachment. C20 diacid = O=C(O)CCCCCCCCCCCCCCCCCCC(=O)*; γGlu = O=C(O)[C@H](CCC(=O)[*:2])N[*:1]; AEEA = NCCOCCOCC(=O)O

Legend:
Sprague Dawley (SD) rats = test: ASSAY (I) efficacy testing on appetite (food intake) using an ad libitum fed rat model; type: in vivo; conditions: rat
Method in brief: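 Individual food consumption was logged each hour up to 7 h and again at 24 h, occasionally 48 h, with Grubbs-test outliers removed. Each 200–250 g Sprague Dawley rat, free-feeding in its home cage under reversed lighting, received a single ip, po or sc dose of 0.01–3 mg/kg at lights-off, alongside a vehicle group.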

[1] = ASSAY (IV) determination of solubility; type: physicochemical
Method in brief: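 Solubility measured by UPLC of supernatant after centrifugation, following 18 h at room temperature. Peptide ([…] in water) was diluted 1:1 into 100 mM glycylglycine (pH 3.0, 4.0, 5.0) or bistrispropane (pH 6.0-8.0).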

rat calcitonin receptor = target: T1, rat calcitonin receptor (Rattus norvegicus, UniProt P32214); test: ASSAY (VIII) binding to the rat calcitonin receptor; conditions: Table 7, read-out: rCTR bind IC50
T1 construct: expressed in transfected cells; host or cells: BHK tk'ts 13 (transient, FuGENE 6), membranes
T1 sequence (P32214 25-479 isoform P32214-2 limits assumed): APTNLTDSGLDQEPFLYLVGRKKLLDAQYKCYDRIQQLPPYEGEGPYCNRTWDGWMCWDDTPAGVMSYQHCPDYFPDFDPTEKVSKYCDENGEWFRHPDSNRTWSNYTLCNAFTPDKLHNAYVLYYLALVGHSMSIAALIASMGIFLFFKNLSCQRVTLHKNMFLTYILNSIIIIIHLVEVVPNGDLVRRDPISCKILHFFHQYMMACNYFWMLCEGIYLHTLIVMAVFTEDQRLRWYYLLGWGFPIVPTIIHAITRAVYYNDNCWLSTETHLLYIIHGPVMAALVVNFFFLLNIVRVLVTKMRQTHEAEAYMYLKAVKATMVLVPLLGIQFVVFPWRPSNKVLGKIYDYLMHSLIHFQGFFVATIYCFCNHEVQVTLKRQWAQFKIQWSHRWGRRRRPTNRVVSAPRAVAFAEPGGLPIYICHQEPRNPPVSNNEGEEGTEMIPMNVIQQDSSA
Method in brief: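 BHK tk′ts 13 cells, transient rat calcitonin receptor transfection; DMEM + 10% FBS; harvest ~48 h post-transfection; membrane prep.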

[2] = bistrispropane buffer, pH 6.5, read-out: Solubility pH 6.5 Concentration
[3] = bistrispropane buffer, pH 7.5, read-out: Solubility pH 7.5 Concentration
[4] = bistrispropane buffer, pH 6.0, read-out: Solubility pH 6.0 Concentration
[5] = bistrispropane buffer, pH 7.0, read-out: Solubility pH 7.0 Concentration
[6] = bistrispropane buffer, pH 8.0, read-out: Solubility pH 8.0 Concentration
[7] = glycylglycine buffer, pH 3.0, read-out: Solubility pH 3.0 Concentration
[8] = glycylglycine buffer, pH 4.0, read-out: Solubility pH 4.0 Concentration
[9] = glycylglycine buffer, pH 5.0, read-out: Solubility pH 5.0 Concentration

SMILES | Food intake reduction 0-24 h 3 nmol/kg (%) (Sprague Dawley (SD) rats; 3 nmol/kg, 0-24 h) | Food intake reduction 24-48 h 3 nmol/kg (%) (Sprague Dawley (SD) rats; 3 nmol/kg, 24-48 h) | Food intake reduction 0-24 h 30 nmol/kg (%) (Sprague Dawley (SD) rats; 0-24 h) | Food intake reduction 24-48 h 30 nmol/kg (%) (Sprague Dawley (SD) rats; 24-48 h) | solubility at 18 h [1, 2] | solubility at 18 h [1, 3] | solubility at 18 h [1, 4] | solubility at 18 h [1, 5] | solubility at 18 h [1, 6] | solubility at 18 h [1, 7] | solubility at 18 h [1, 8] | solubility at 18 h [1, 9] | IC50 (rat calcitonin receptor)
CC[C@H](C)[C@H](NC(=O)[C@H](C)NC(=O)CNC(=O)[C@H](Cc1ccccc1)NC(=O)[C@H](CC(N)=O)NC(=O)[C@@H]1CCCN1C(=O)[C@H](CO)NC(=O)[C@H](CO)NC(=O)[C@H](Cc1c[nH]cn1)NC(=O)[C@H](CCCNC(=N)N)NC(=O)[C@H](CC(C)C)NC(=O)[C@H](Cc1ccccc1)NC(=O)[C@H](CC(=O)O)NC(=O)[C@H](C)NC(=O)[C@H](CC(C)C)NC(=O)[C@H](CCCNC(=N)N)NC(=O)[C@H](CCC(N)=O)NC(=O)[C@@H](NC(=O)[C@H](C)NC(=O)[C@@H]1CSSC[C@H](NC(=O)[C@@H](N)CCCCNC(=O)CC[C@H](NC(=O)CC[C@H](NC(=O)CCCCCCCCCCCCCCCCCCC(=O)O)C(=O)O)C(=O)O)C(=O)N[C@@H](CC(N)=O)C(=O)N[C@@H]([C@@H](C)O)C(=O)N[C@@H](C)C(=O)N[C@@H]([C@@H](C)O)C(=O)N1)[C@@H](C)O)C(=O)N1CCC[C@H]1C(=O)N[C@@H](CO)C(=O)N[C@@H](CO)C(=O)N[C@H](C(=O)N[C@@H](CC(N)=O)C(=O)N[C@H](C(=O)NCC(=O)N[C@@H](CO)C(=O)N[C@@H](CCCNC(=N)N)C(=O)N[C@H](C(=O)N[C@@H](Cc1ccc(O)cc1)C(N)=O)[C@@H](C)O)C(C)C)[C@@H](C)O [Example 52, N-ε-1-{(S)-4-carboxy-4-[(S)-4-carboxy-4-(19-carboxynonadecanoylamino)butyrylamino]butyryl}-[Asp14,Arg17,Pro21,Pro27,Arg35]-human amylin] | 25% | 15% | 63% | 50% | ≥ 200 µM | 106 µM (≈ 483 µg/mL) | ≥ 200 µM | 155 µM (≈ 706 µg/mL) | 110 µM (≈ 501 µg/mL) | ≥ 200 µM | ≥ 200 µM | ≥ 200 µM | 159 nM
CC[C@H](C)[C@H](NC(=O)[C@H](C)NC(=O)CNC(=O)[C@H](Cc1ccccc1)NC(=O)[C@H](CC(N)=O)NC(=O)[C@@H]1CCCN1C(=O)[C@H](CO)NC(=O)[C@H](CO)NC(=O)[C@H](Cc1c[nH]cn1)NC(=O)[C@H](CCCNC(=N)N)NC(=O)[C@H](CC(C)C)NC(=O)[C@H](Cc1ccccc1)NC(=O)[C@H](CC(N)=O)NC(=O)[C@H](C)NC(=O)[C@H](CC(C)C)NC(=O)[C@H](CCCNC(=N)N)NC(=O)[C@H](CCC(N)=O)NC(=O)[C@@H](NC(=O)[C@H](C)NC(=O)[C@@H]1CSSC[C@H](NC(=O)[C@@H](N)CCCCNC(=O)COCCOCCNC(=O)CC[C@H](NC(=O)CCCCCCCCCCCCCCCCCCC(=O)O)C(=O)O)C(=O)N[C@@H](CC(N)=O)C(=O)N[C@@H]([C@@H](C)O)C(=O)N[C@@H](C)C(=O)N[C@@H]([C@@H](C)O)C(=O)N1)[C@@H](C)O)C(=O)N1CCC[C@H]1C(=O)N[C@@H](CO)C(=O)N[C@@H](CO)C(=O)N[C@H](C(=O)N1CCC[C@H]1C(=O)N[C@H](C(=O)NCC(=O)N[C@@H](CO)C(=O)N[C@@H](Cc1c[nH]cn1)C(=O)N[C@H](C(=O)N[C@@H](Cc1ccc(O)cc1)C(N)=O)[C@@H](C)O)C(C)C)[C@@H](C)O [Example 57] (H-K([AEEA-γGlu-C20 diacid])CNTATCATQRLANFLRHSSPNFGAIPSSTPVGSHTY-NH2; disulfide 2-7; N-terminus assumed) | – | – | 62% | 16% | ≥ 200 µM | 142 µM (≈ 644 µg/mL) | ≥ 200 µM | ≥ 200 µM | 101 µM (≈ 458 µg/mL) | ≥ 200 µM | ≥ 200 µM | ≥ 200 µM | 24.4 nM
CC[C@H](C)[C@H](NC(=O)[C@H](C)NC(=O)CNC(=O)[C@H](Cc1ccccc1)NC(=O)[C@H](CC(N)=O)NC(=O)[C@@H]1CCCN1C(=O)[C@H](CO)NC(=O)[C@H](CO)NC(=O)[C@H](Cc1c[nH]cn1)NC(=O)[C@H](CCCNC(=N)N)NC(=O)[C@H](CC(C)C)NC(=O)[C@H](Cc1ccccc1)NC(=O)[C@H](CC(N)=O)NC(=O)[C@H](C)NC(=O)[C@H](CC(C)C)NC(=O)[C@H](CCCNC(=N)N)NC(=O)[C@H](CCC(N)=O)NC(=O)[C@@H](NC(=O)[C@H](C)NC(=O)[C@@H]1CSSC[C@H](NC(=O)[C@@H](N)CCCCNC(=O)CC[C@H](NC(=O)CCCCCCCCCCCCCCCCCCC(=O)O)C(=O)O)C(=O)N[C@@H](CC(N)=O)C(=O)N[C@@H]([C@@H](C)O)C(=O)N[C@@H](C)C(=O)N[C@@H]([C@@H](C)O)C(=O)N1)[C@@H](C)O)C(=O)N1CCC[C@H]1C(=O)N[C@@H](CO)C(=O)N[C@@H](CO)C(=O)N[C@H](C(=O)N[C@@H](CC(N)=O)C(=O)N[C@H](C(=O)NCC(=O)N[C@@H](CO)C(=O)N[C@@H](Cc1c[nH]cn1)C(=O)N[C@H](C(=O)N[C@@H](Cc1ccc(O)cc1)C(N)=O)[C@@H](C)O)C(C)C)[C@@H](C)O [Example 60] | – | – | 69% | 21% | ≥ 200 µM | 186 µM (≈ 819 µg/mL) | ≥ 200 µM | ≥ 200 µM | 98 µM (≈ 432 µg/mL) | ≥ 200 µM | ≥ 200 µM | ≥ 200 µM | 26.3 nM
CC[C@H](C)[C@H](NC(=O)[C@H](C)NC(=O)CNC(=O)[C@H](Cc1ccccc1)NC(=O)[C@H](CC(N)=O)NC(=O)[C@@H]1CCCN1C(=O)[C@H](CO)NC(=O)[C@H](CO)NC(=O)[C@H](Cc1c[nH]cn1)NC(=O)[C@H](CCCNC(=N)N)NC(=O)[C@H](CC(C)C)NC(=O)[C@H](Cc1ccccc1)NC(=O)[C@H](Cc1c[nH]cn1)NC(=O)[C@H](C)NC(=O)[C@H](CC(C)C)NC(=O)[C@H](CCCNC(=N)N)NC(=O)[C@H](CCC(N)=O)NC(=O)[C@@H](NC(=O)[C@H](C)NC(=O)[C@@H]1CSSC[C@H](NC(=O)[C@@H](N)CCCCNC(=O)COCCOCCNC(=O)CC[C@H](NC(=O)CCCCCCCCCCCCCCCCCCC(=O)O)C(=O)O)C(=O)N[C@@H](CC(N)=O)C(=O)N[C@@H]([C@@H](C)O)C(=O)N[C@@H](C)C(=O)N[C@@H]([C@@H](C)O)C(=O)N1)[C@@H](C)O)C(=O)N1CCC[C@H]1C(=O)N[C@@H](CO)C(=O)N[C@@H](CO)C(=O)N[C@H](C(=O)N1CCC[C@H]1C(=O)N[C@H](C(=O)NCC(=O)N[C@@H](CO)C(=O)N[C@@H](CC(N)=O)C(=O)N[C@H](C(=O)N[C@@H](Cc1ccc(O)cc1)C(N)=O)[C@@H](C)O)C(C)C)[C@@H](C)O [Example 61] (H-K([AEEA-γGlu-C20 diacid])CNTATCATQRLAHFLRHSSPNFGAIPSSTPVGSNTY-NH2; disulfide 2-7 (inferred)) | – | – | 53% | 18% | ≥ 200 µM | ≥ 200 µM | ≥ 200 µM | ≥ 200 µM | 153 µM (≈ 693 µg/mL) | ≥ 200 µM | ≥ 200 µM | ≥ 200 µM | 33.4 nM
CC[C@H](C)[C@H](NC(=O)[C@H](C)NC(=O)CNC(=O)[C@H](Cc1ccccc1)NC(=O)[C@H](CC(N)=O)NC(=O)[C@@H]1CCCN1C(=O)[C@H](CO)NC(=O)[C@H](CO)NC(=O)[C@H](Cc1c[nH]cn1)NC(=O)[C@H](CCCNC(=N)N)NC(=O)[C@H](CC(C)C)NC(=O)[C@H](Cc1ccccc1)NC(=O)[C@H](Cc1c[nH]cn1)NC(=O)[C@H](C)NC(=O)[C@H](CC(C)C)NC(=O)[C@H](CCCNC(=N)N)NC(=O)[C@H](CCC(N)=O)NC(=O)[C@@H](NC(=O)[C@H](C)NC(=O)[C@@H]1CSSC[C@H](NC(=O)[C@@H](N)CCCCNC(=O)CC[C@H](NC(=O)CCCCCCCCCCCCCCCCCCC(=O)O)C(=O)O)C(=O)N[C@@H](CC(N)=O)C(=O)N[C@@H]([C@@H](C)O)C(=O)N[C@@H](C)C(=O)N[C@@H]([C@@H](C)O)C(=O)N1)[C@@H](C)O)C(=O)N1CCC[C@H]1C(=O)N[C@@H](CO)C(=O)N[C@@H](CO)C(=O)N[C@H](C(=O)N1CCC[C@H]1C(=O)N[C@H](C(=O)NCC(=O)N[C@@H](CO)C(=O)N[C@@H](CC(N)=O)C(=O)N[C@H](C(=O)N[C@@H](Cc1ccc(O)cc1)C(N)=O)[C@@H](C)O)C(C)C)[C@@H](C)O [Example 62] (H-K([γGlu-C20 diacid])CNTATCATQRLAHFLRHSSPNFGAIPSSTPVGSNTY-NH2; disulfide 2-7; N-terminus assumed) | – | – | 62% | 18% | ≥ 200 µM | ≥ 200 µM | ≥ 200 µM | ≥ 200 µM | 189 µM (≈ 829 µg/mL) | ≥ 200 µM | ≥ 200 µM | ≥ 200 µM | 18 nM
